Test results as given in PubChem BioAssay (NCI).
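Exposure lasted 48 hours, with cells grown in 96-well plates and compounds tested at five concentrations. TGI: total growth inhibition.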

Legend:
Assay in all cases: NCI tumour cell line growth inhibition, 48 h
OVCAR-3 ovarian = system: OVCAR-3 ovarian
SK-OV-3 ovarian = system: SK-OV-3 ovarian
HOP-62 NSCLC = system: HOP-62 NSCLC
BT-549 breast = system: BT-549 breast
PC-3 prostate = system: PC-3 prostate
SN12C renal = system: SN12C renal
KM12 colon = system: KM12 colon
NCI-H226 lung = system: NCI-H226 lung
786-0 renal = system: 786-0 renal
HOP-92 NSCLC = system: HOP-92 NSCLC
MCF7 breast = system: MCF7 breast
DU-145 prostate = system: DU-145 prostate
ACHN renal = system: ACHN renal
SR leukemia = system: SR leukemia
U251 CNS = system: U251 CNS
SF-268 CNS = system: SF-268 CNS
SK-MEL-5 melanoma = system: SK-MEL-5 melanoma
MOLT-4 leukemia = system: MOLT-4 leukemia
HT29 colon = system: HT29 colon
HL-60(TB) leukemia = system: HL-60(TB) leukemia
CAKI-1 renal = system: CAKI-1 renal
HS 578T breast = system: HS 578T breast
HCT-15 colon = system: HCT-15 colon
IGROV1 ovarian = system: IGROV1 ovarian
SK-MEL-2 melanoma = system: SK-MEL-2 melanoma
A549 NSCLC = system: A549 NSCLC
CCRF-CEM leukemia = system: CCRF-CEM leukemia
UACC-257 melanoma = system: UACC-257 melanoma
NCI-H23 lung = system: NCI-H23 lung
OVCAR-8 ovarian = system: OVCAR-8 ovarian
TK-10 renal = system: TK-10 renal
RXF 393 renal = system: RXF 393 renal
MDA-MB-231 breast = system: MDA-MB-231 breast
SF-295 CNS = system: SF-295 CNS
LOX IMVI melanoma = system: LOX IMVI melanoma
OVCAR-4 ovarian = system: OVCAR-4 ovarian
OVCAR-5 ovarian = system: OVCAR-5 ovarian
RPMI-8226 leukemia = system: RPMI-8226 leukemia
HCC-2998 colon = system: HCC-2998 colon
EKVX NSCLC = system: EKVX NSCLC
SF-539 CNS = system: SF-539 CNS
A498 renal = system: A498 renal
T-47D breast = system: T-47D breast
NCI-H522 lung = system: NCI-H522 lung
NCI-H460 lung = system: NCI-H460 lung
SK-MEL-28 melanoma = system: SK-MEL-28 melanoma
SNB-19 CNS = system: SNB-19 CNS
UACC-62 melanoma = system: UACC-62 melanoma
COLO 205 colon = system: COLO 205 colon
NCI/ADR-RES ovarian = system: NCI/ADR-RES ovarian
SW-620 colon = system: SW-620 colon
HCT-116 colon = system: HCT-116 colon
MDA-MB-435 = system: MDA-MB-435
MDA-N = system: MDA-N
MALME-3M melanoma = system: MALME-3M melanoma
UO-31 renal = system: UO-31 renal
M14 melanoma = system: M14 melanoma
K-562 leukemia = system: K-562 leukemia
SNB-75 CNS = system: SNB-75 CNS

Measured: TGI

COc1c2c(cc3c1OCO3)[C@]13C=C[C@H](OC)C[C@H]1N(C2)CC3O (stereo partly specified)
not listed: K-562 leukemia | SNB-75 CNS
> 100 µM: all other assays above

N#Cc1c(-c2ccccc2)[nH]c2ccc(Cl)cc2c1=O
51.1 µM: HOP-92 NSCLC
44 µM: UO-31 renal
74 µM: HOP-62 NSCLC
66.2 µM: SF-295 CNS
89.7 µM: MDA-MB-231 breast
49 µM: RXF 393 renal
94.3 µM: SK-MEL-2 melanoma
90.6 µM: TK-10 renal
59.9 µM: SNB-19 CNS
80.9 µM: BT-549 breast
75.9 µM: U251 CNS
not listed: A498 renal
> 100 µM: all other assays above

Cc1cc2nc(C=C(C(F)(F)F)C(F)(F)F)oc2cc1C
0.392 µM: COLO 205 colon
3.42 µM: SW-620 colon
4.97 µM: NCI-H23 lung
5.1 µM: SN12C renal | K-562 leukemia
5.03 µM: HL-60(TB) leukemia | M14 melanoma
6.13 µM: BT-549 breast
5.93 µM: NCI/ADR-RES ovarian
7.76 µM: HT29 colon
9.62 µM: HCT-15 colon
3.96 µM: LOX IMVI melanoma
8.08 µM: IGROV1 ovarian
5.08 µM: PC-3 prostate
3.38 µM: 786-0 renal
3.76 µM: MALME-3M melanoma
6.74 µM: CCRF-CEM leukemia
4.35 µM: OVCAR-3 ovarian
7.23 µM: CAKI-1 renal
6.9 µM: HCC-2998 colon
5.66 µM: MOLT-4 leukemia
8.05 µM: EKVX NSCLC
5.16 µM: TK-10 renal
6.35 µM: NCI-H522 lung
9 µM: SF-268 CNS
8.84 µM: HS 578T breast
6.43 µM: SF-539 CNS
8.53 µM: T-47D breast
5.62 µM: RPMI-8226 leukemia
5.42 µM: MDA-MB-231 breast
9.72 µM: HOP-62 NSCLC
2.72 µM: HCT-116 colon
6.68 µM: OVCAR-8 ovarian
4.21 µM: MDA-MB-435
4.92 µM: RXF 393 renal
7.03 µM: OVCAR-5 ovarian
7.78 µM: OVCAR-4 ovarian
not listed: NCI-H226 lung
> 10 µM: all other assays above

Cc1ccc(S(=O)(=O)N/N=C2/CCCOC2)cc1
not listed: SNB-75 CNS
> 100 µM: all other assays above
